Experimental data from patent US9150577B2, “Heterocyclic compounds containing an indole core” (Boehringer Ingelheim International GmbH, priority 2009, dated 2015).

target: Human RSK2 (Homo sapiens (Human), UniProt P51812); test: Human RSK2 assay (Kinase Glo Plus, residual ATP); type: biochemical;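 note: recombinant human RSK2 phosphorylating a substrate peptide, 90 min at 28 °C, leftover ATP read by luminescence, RLU scaled between no-kinase background and uninhibited kinase controls, 4-parameter fit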
Sequence (P51812 whole entry): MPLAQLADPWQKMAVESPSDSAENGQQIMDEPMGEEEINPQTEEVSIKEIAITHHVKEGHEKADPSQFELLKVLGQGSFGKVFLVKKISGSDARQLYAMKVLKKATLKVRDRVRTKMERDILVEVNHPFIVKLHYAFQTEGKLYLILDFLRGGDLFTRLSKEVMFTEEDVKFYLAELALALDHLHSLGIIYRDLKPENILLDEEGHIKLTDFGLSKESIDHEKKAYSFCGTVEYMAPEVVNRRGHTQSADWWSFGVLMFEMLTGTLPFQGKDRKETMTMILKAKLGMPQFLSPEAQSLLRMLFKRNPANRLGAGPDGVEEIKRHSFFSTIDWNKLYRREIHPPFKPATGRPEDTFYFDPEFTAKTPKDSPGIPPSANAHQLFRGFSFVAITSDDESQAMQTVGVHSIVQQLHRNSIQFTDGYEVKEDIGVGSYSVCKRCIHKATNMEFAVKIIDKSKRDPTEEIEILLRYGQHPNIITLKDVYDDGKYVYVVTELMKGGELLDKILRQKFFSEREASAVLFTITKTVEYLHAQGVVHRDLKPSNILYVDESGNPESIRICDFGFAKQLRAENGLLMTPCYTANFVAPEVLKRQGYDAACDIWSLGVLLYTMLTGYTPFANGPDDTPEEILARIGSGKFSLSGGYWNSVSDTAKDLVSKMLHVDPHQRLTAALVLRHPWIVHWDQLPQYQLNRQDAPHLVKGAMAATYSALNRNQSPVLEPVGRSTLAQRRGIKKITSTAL

Compound	IC50 [nM]
O=C(Nc1cc(C(F)(F)F)no1)c1ccc2cc3n(c2c1)CCCNC3=O [Example 207, 1-oxo-N-[3-(trifluoromethyl)-1,2-oxazol-5-yl]-2,3,4,5-tetrahydro-1H-[1,4]diazepino[1,2-a]indole-8-carboxamide]	85
CC(=O)c1cccc(NC(=O)c2ccc3cc4n(c3c2)CCCNC4=O)c1 [Example 187, N-(3-acetylphenyl)-1-oxo-2,3,4,5-tetrahydro-1H-[1,4]diazepino[1,2-a]indole-8-carboxamide]	160
C[C@@H]1CNC(=O)c2cc3ccc(C(=O)Nc4cnn(Cc5ccccc5)c4)cc3n2[C@H]1C [Example 137, (4R,5S)-N-(1-benzyl-1H-pyrazol-4-yl)-trans-4,5-dimethyl-1-oxo-2,3,4,5-tetrahydro-1H-[1,4]diazepino[1,2-a]indole-8-carboxamide]	43.5
Cn1cc(NC(=O)c2ccc3cc4n(c3c2)CC(C)(C)CNC4=O)cn1 [Example 163, 4,4-dimethyl-N-(1-methyl-1H-pyrazol-4-yl)-1-oxo-2,3,4,5-tetrahydro-1H-[1,4]diazepino[1,2-a]indole-8-carboxamide]	335
O=C(Nc1ccn(Cc2ccc(F)cc2)n1)c1ccc2cc3n(c2c1)CCCNC3=O [Example 12, N-[1-(4-fluorobenzyl)-1H-pyrazol-3-yl]-1-oxo-2,3,4,5-tetrahydro-1H-[1,4]diazepino[1,2-a]indole-8-carboxamide]	220
O=C(Nc1cn[nH]c1)c1ccc2cc3n(c2c1)CCCNC3=O [Example 15, 1-oxo-N-(1H-pyrazol-4-yl)-2,3,4,5-tetrahydro-1H-[1,4]diazepino[1,2-a]indole-8-carboxamide]	43
Cc1nn(C)c2ncc(NC(=O)c3ccc4cc5n(c4c3)CCCNC5=O)cc12 [Example 189, N-(1,3-dimethyl-1H-pyrazolo[3,4-b]pyridin-5-yl)-1-oxo-2,3,4,5-tetrahydro-1H-[1,4]diazepino[1,2-a]indole-8-carboxamide]	1300
O=C(Nc1cc(-c2ccccc2)on1)c1ccc2cc3n(c2c1)CCCNC3=O [Example 211, 1-oxo-N-(5-phenyl-1,2-oxazol-3-yl)-2,3,4,5-tetrahydro-1H-[1,4]diazepino[1,2-a]indole-8-carboxamide]	290
CC(C)(CO)c1cc(NC(=O)c2ccc3cc4n(c3c2)CCCNC4=O)on1 [Example 208, N-[3-(1-hydroxy-2-methylpropan-2-yl)-1,2-oxazol-5-yl]-1-oxo-2,3,4,5-tetrahydro-1H-[1,4]diazepino[1,2-a]indole-8-carboxamide]	96
Cc1cc(NC(=O)c2ccc3cc4n(c3c2)CC(F)(F)CNC4=O)no1 [Example 167, 4,4-difluoro-N-(5-methyl-1,2-oxazol-3-yl)-1-oxo-2,3,4,5-tetrahydro-1H-[1,4]diazepino[1,2-a]indole-8-carboxamide]	670
CS(=O)(=O)c1ccc2c(c1)nc(NC(=O)c1ccc3cc4n(c3c1)CC1(CCNCC1)CNC4=O)n2CC(F)(F)F [Example 239, N-[5-(methylsulfonyl)-1-(2,2,2-trifluoroethyl)-1H-benzimidazol-2-yl]-1-oxo-2,3-dihydro-1H-spiro[1,4-diazepino[1,2-a]indole-4,4′-piperidine]-8-carboxamide]	51
O=C(Nc1cccc(N2CCOCC2)c1)c1ccc2cc3n(c2c1)CCCNC3=O [Example 7, N-[3-(morpholin-4-yl)phenyl]-1-oxo-2,3,4,5-tetrahydro-1H-[1,4]diazepino[1,2-a]indole-8-carboxamide]	60
O=C(Nc1ccc(Cl)cc1)c1ccc2cc3n(c2c1)CCCNC3=O [Example 4, N-(4-chlorophenyl)-1-oxo-2,3,4,5-tetrahydro-1H-[1,4]diazepino[1,2-a]indole-8-carboxamide]	190
Cc1ccc(-c2cc(NC(=O)c3ccc4cc5n(c4c3)CCCNC5=O)on2)cc1 [Example 199, N-[3-(4-methylphenyl)-1,2-oxazol-5-yl]-1-oxo-2,3,4,5-tetrahydro-1H-[1,4]diazepino[1,2-a]indole-8-carboxamide]	115
Cc1ccc(-c2cccc(NC(=O)c3ccc4cc5n(c4c3)CCCNC5=O)c2)s1 [Example 228, N-[3-(5-methylthiophen-2-yl)phenyl]-1-oxo-2,3,4,5-tetrahydro-1H-[1,4]diazepino[1,2-a]indole-8-carboxamide]	4100
CC(C)(C)c1cc(NC(=O)c2ccc3cc4n(c3c2)CCCNC4=O)on1 [Example 195, N-(3-tert-butyl-1,2-oxazol-5-yl)-1-oxo-2,3,4,5-tetrahydro-1H-[1,4]diazepino[1,2-a]indole-8-carboxamide]	44
CC(C)(CO)n1c(NC(=O)c2ccc3cc4n(c3c2)CCCNC4=O)nc2ccccc21 [Example 66, N-[1-(1-hydroxy-2-methylpropan-2-yl)-1H-benzimidazol-2-yl]-1-oxo-2,3,4,5-tetrahydro-1H-[1,4]diazepino[1,2-a]indole-8-carboxamide]	610
CNC(=O)c1ccccc1NC(=O)c1ccc2cc3n(c2c1)CCCNC3=O [Example 229, N-[2-(methylcarbamoyl)phenyl]-1-oxo-2,3,4,5-tetrahydro-1H-[1,4]diazepino[1,2-a]indole-8-carboxamide]	154
Cn1ncc2cc(NC(=O)c3ccc4cc5n(c4c3)CCCNC5=O)cnc21 [Example 20, N-(1-methyl-1H-pyrazolo[3,4-b]pyridin-5-yl)-1-oxo-2,3,4,5-tetrahydro-1H-[1,4]diazepino[1,2-a]indole-8-carboxamide]	87
O=C(Nc1cccc(-c2cc[nH]n2)c1)c1ccc2cc3n(c2c1)CCCNC3=O [Example 227, 1-oxo-N-[3-(1H-pyrazol-3-yl)phenyl]-2,3,4,5-tetrahydro-1H-[1,4]diazepino[1,2-a]indole-8-carboxamide]	41
C[C@H]1NC(=O)c2cc3ccc(C(=O)Nc4cccnc4)cc3n2[C@H]1C (relative stereo) [Example 179, Cis-3,4-dimethyl-1-oxo-N-(pyridin-3-yl)-1,2,3,4-tetrahydropyrazino[1,2-a]indole-7-carboxamide]	45

Stronger by IC50, values ahead:

IC50 [nM]	Compound
11	CN(C)CCCn1c(NC(=O)c2ccc3cc4n(c3c2)CC2(CCC2)CNC4=O)nc2ccccc21 [Example 97, N-{1-[3-(dimethylamino)propyl]-1H-benzimidazol-2-yl}-1′-oxo-2′,3′-dihydro-1′H-spiro[cyclobutane-1,4′-[1,4]diazepino[1,2-a]indole]-8′-carboxamide]
6.2	CC(C)c1ccc2[nH]c(NC(=O)c3ccc4cc5n(c4c3)CCCNC5=O)nc2c1 [Example 42, 1-oxo-N-[5-(propan-2-yl)-1H-benzimidazol-2-yl]-2,3,4,5-tetrahydro-1H-[1,4]diazepino[1,2-a]indole-8-carboxamide]
0.6	C[C@@H]1CNC(=O)c2cc3ccc(C(=O)Nc4cnn(Cc5ccccc5)c4)cc3n21 [Example 130, (4R)-N-(1-benzyl-1H-pyrazol-4-yl)-4-methyl-1-oxo-1,2,3,4-tetrahydropyrazino[1,2-a]indole-7-carboxamide]
26.5	O=C(Nc1cnn(Cc2ccccc2)c1)c1ccc2cc3n(c2c1)CC1(CCC1)CNC3=O [Example 138, N-(1-benzyl-1H-pyrazol-4-yl)-1′-oxo-2′,3′-dihydro-1′H-spiro[cyclobutane-1,4′-[1,4]diazepino[1,2-a]indole]-8′-carboxamide]
32	O=C(Nc1cnn(Cc2ccccc2)c1)c1ccc2cc3n(c2c1)CC(F)(F)CNC3=O [Example 115, N-(1-benzyl-1H-pyrazol-4-yl)-4,4-difluoro-1-oxo-2,3,4,5-tetrahydro-1H-[1,4]diazepino[1,2-a]indole-8-carboxamide]
4	O=C(Nc1cnn(Cc2ccccc2)c1)c1ccc2cc3n(c2c1)CCCNC3=O [Example 32, N-(1-benzyl-1H-pyrazol-4-yl)-1-oxo-2,3,4,5-tetrahydro-1H-[1,4]diazepino[1,2-a]indole-8-carboxamide]
23	CN(C)CCCn1c(NC(=O)c2ccc3cc4n(c3c2)CC(F)(F)CNC4=O)nc2ccccc21 [Example 121, N-{1-[3-(dimethylamino)propyl]-1H-benzimidazol-2-yl}-4,4-difluoro-1-oxo-2,3,4,5-tetrahydro-1H-[1,4]diazepino[1,2-a]indole-8-carboxamide]
3	Cc1ccc2[nH]c(NC(=O)c3ccc4cc5n(c4c3)CCCNC5=O)nc2c1 [Example 39, N-(5-methyl-1H-benzimidazol-2-yl)-1-oxo-2,3,4,5-tetrahydro-1H-[1,4]diazepino[1,2-a]indole-8-carboxamide]
27	O=C(Nc1cnn(C2CCOC2)c1)c1ccc2cc3n(c2c1)CCCNC3=O (centres unmarked) [Example 26, 1-oxo-N-[1-(tetrahydrofuran-3-yl)-1H-pyrazol-4-yl]-2,3,4,5-tetrahydro-1H-[1,4]diazepino[1,2-a]indole-8-carboxamide]
3.4	CC(C)n1c(NC(=O)c2ccc3cc4n(c3c2)[C@@H](C)[C@@H](C)NC4=O)nc2ccccc21 (relative stereo) [Example 67, cis-3,4-dimethyl-1-oxo-N-[1-(propan-2-yl)-1H-benzimidazol-2-yl]-1,2,3,4-tetrahydropyrazino[1,2-a]indole-7-carboxamide]
22	O=C(Nc1nc2ccccc2n1CCc1ccccn1)c1ccc2cc3n(c2c1)CCCNC3=O [Example 89, 1-oxo-N-{1-[2-(pyridin-2-yl)ethyl]-1H-benzimidazol-2-yl}-2,3,4,5-tetrahydro-1H-[1,4]diazepino[1,2-a]indole-8-carboxamide]
13.7	C[C@H]1NC(=O)c2cc3ccc(C(=O)Nc4nc5ccccc5n4CCCN(C)C)cc3n2[C@H]1C [Example 141, (3R,4S)-N-{1-[3-(dimethylamino)propyl]-1H-benzimidazol-2-yl}-3,4-dimethyl-1-oxo-1,2,3,4-tetrahydropyrazino[1,2-a]indole-7-carboxamide]
6.6	Cc1cc(NC(=O)c2ccc3cc4n(c3c2)[C@H](C)CNC4=O)no1 [Example 128, (4R)-4-methyl-N-(5-methyl-1,2-oxazol-3-yl)-1-oxo-1,2,3,4-tetrahydropyrazino[1,2-a]indole-7-carboxamide]
26	O=C(Nc1cc(C2CC2)on1)c1ccc2cc3n(c2c1)CCCNC3=O [Example 183, N-(5-cyclopropyl-1,2-oxazol-3-yl)-1-oxo-2,3,4,5-tetrahydro-1H-[1,4]diazepino[1,2-a]indole-8-carboxamide]
